SMILES strings stand for the structures.

Human TASK-1 channels, sequence (O14649 whole entry): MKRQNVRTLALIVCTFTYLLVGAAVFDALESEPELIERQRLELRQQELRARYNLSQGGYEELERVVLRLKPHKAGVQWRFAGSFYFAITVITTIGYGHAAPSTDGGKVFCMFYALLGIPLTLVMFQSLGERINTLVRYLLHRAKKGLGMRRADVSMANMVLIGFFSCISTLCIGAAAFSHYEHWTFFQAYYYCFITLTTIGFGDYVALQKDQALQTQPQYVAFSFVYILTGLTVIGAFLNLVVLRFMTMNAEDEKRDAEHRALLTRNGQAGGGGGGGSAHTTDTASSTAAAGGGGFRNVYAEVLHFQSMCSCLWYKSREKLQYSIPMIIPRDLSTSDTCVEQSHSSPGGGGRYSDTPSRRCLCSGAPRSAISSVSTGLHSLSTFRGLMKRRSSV

The first assay deals with Human TASK-1 channels (Homo sapiens (Human), UniProt O14649). Nature of the assay: Determination of the activity on the TASK-1 channel in Xenopus oocytes (two-microelectrode voltage clamp). The class given is cell-based. The settings on record: compound concentration 5 μM. As for the experimental part:
Determination of the activity on the TASK-1 channel in Xenopus oocytes
Human TASK-1 channels were expressed in Xenopus oocytes. For this purpose, oocytes were isolated from Xenopus laevis and defoliculated. Subsequently, TASK-1-encoding RNA synthesized in vitro was injected into the oocytes. After two days of TASK-1 protein expression, TASK-1 currents were measured by two-microelectrode voltage clamp. Data were acquired and analyzed using a TEC-10cx amplifier (NPI Electronic, Tamm, Germany) connected to an ITC-16 interface (Instrutech Corp., Long Island, USA) and Pulse software (HEKA Elektronik, Lambrecht, Germany). Oocytes were clamped to −90 mV and TASK-1 mediated currents were measured during 500 ms voltage pulses to 40 mV. Oocytes were continuously superfused with ND96 buffer containing 96 mM sodium chloride, 2 mM potassium chloride, 1.8 mM calcium chloride, 1 mM magnesium chloride, 5 mM 4-(2-hydroxyethyl)-piperazine-1-ethanesulfonic acid (HEPES; pH adjusted to 7.4 with sodium hydroxide). All experiments were performed at room temperature. Test compounds were consecutively added to the bath solution at rising concentrations. Compound effects were calculated as the percentage inhibition of TASK-1 control current before compound addition. IC50 values were obtained by fitting the data to the general dose-response equation.
In turn, `CC[C@@H](NC(=O)c1cc(C(=O)N2CCC2C)n2c1COCC2)c1ccc(C(F)(F)F)nc1` (stereo partly drawn) [16pe, 6-(2-Methyl-azetidine-1-carbonyl)-3,4-dihydro-1H-pyrrolo[2,1-c][1,4]oxazine-8-carboxylic acid [(R)-1-(6-trifluoromethyl-pyridin-3-yl)-propyl]-amide] registered an inhibition at 5 µM of 69%.

Consider `CC[C@@H](NC(=O)c1cc(C(=O)N2CCC[C@@H]2C)n2c1COCC2)c1cncc(C(F)(F)F)c1` [16bk, 6-((S)-2-Methyl-pyrrolidine-1-carbonyl)-3,4-dihydro-1H-pyrrolo[2,1-c][1,4]oxazine-8-carboxylic acid [(R)-1-(5-trifluoromethyl-pyridin-3-yl)-propyl]-amide], for which testing at 5 µM gave an inhibition of 53%.

For `C[C@H]1CCCN1C(=O)c1cc(C(=O)NCc2c(F)cc(F)cc2F)c2n1CCOC2` [16af, 6-((S)-2-Methyl-pyrrolidine-1-carbonyl)-3,4-dihydro-1H-pyrrolo[2,1-c][1,4]oxazine-8-carboxylic acid 2,4,6-trifluoro-benzylamide], the inhibition at 5 µM was 78%.

With `C[C@H]1CCCN1C(=O)c1cc(C(=O)NCc2c(Cl)cccc2Cl)c2n1CCOC2` [16ag, 6-((S)-2-Methyl-pyrrolidine-1-carbonyl)-3,4-dihydro-1H-pyrrolo[2,1-c][1,4]oxazine-8-carboxylic acid 2,6-dichloro-benzylamide], the inhibition at 5 µM was 84%.

Still in this assay, the particulars now being: human TASK-1 expressed in Xenopus oocytes, room temperature; read-out: IC50 value for TASK-1 inhibition.
As to `CC[C@@H](NC(=O)c1cc(C(=O)N2CCC[C@@H]2C)n2c1COCC2)c1cnc(C(F)(F)F)c(OC)c1` [16cw, 6-((S)-2-Methyl-pyrrolidine-1-carbonyl)-3,4-dihydro-1H-pyrrolo[2,1-c][1,4]oxazine-8-carboxylic acid [(R)-1-(5-methoxy-6-trifluoromethyl-pyridin-3-yl)-propyl]-amide], the IC50 is 2.4 µM.

For the compound `CC(C)[C@@H](NC(=O)c1cc(C(=O)N2CCCC2)c2n1CCOC2)c1ccc(F)cc1` [16lm, 8-(Pyrrolidine-1-carbonyl)-3,4-dihydro-1H-pyrrolo[2,1-c][1,4]oxazine-6-carboxylic acid [(R)-1-(4-fluoro-phenyl)-2-methyl-propyl]-amide], the IC50 was 0.27 µM.

Consider `O=C(NC(c1ccc(F)cc1)C(F)(F)F)c1cc(C(=O)N2CCCC2)n2c1COCC2` (centres unmarked) [16df, 6-(Pyrrolidine-1-carbonyl)-3,4-dihydro-1H-pyrrolo[2,1-c][1,4]oxazine-8-carboxylic acid [2,2,2-trifluoro-1-(4-fluoro-phenyl)-ethyl]-amide], for which the IC50 is 1.91 µM.

Regarding `CC(C)[C@@H](NC(=O)c1cc(C(=O)N2CCC[C@@H]2C)c2n1CCOC2)c1ccc(F)cc1` [16lj, 8-((S)-2-Methyl-pyrrolidine-1-carbonyl)-3,4-dihydro-1H-pyrrolo[2,1-c][1,4]oxazine-6-carboxylic acid [(R)-1-(4-fluoro-phenyl)-2-methyl-propyl]-amide], the IC50 was 0.2 µM.

`CC[C@H](NC(=O)c1cc(C(=O)N2CCC[C@@H]2C)n2c1COCC2)c1cnc(C(F)(F)F)cc1C(F)(F)F` [16bx, 6-((S)-2-Methyl-pyrrolidine-1-carbonyl)-3,4-dihydro-1H-pyrrolo[2,1-c][1,4]oxazine-8-carboxylic acid [(S)-1-(4,6-bis-trifluoromethyl-pyridin-3-yl)-propyl]-amide]: the IC50 was 0.48 µM.

As for `CC[C@H]1CCCN1C(=O)c1cc(C(=O)N[C@H](CC)c2ccccc2)c2n1CCOC2` (racemic) [16fc, 6-((S)-2-Ethyl-pyrrolidine-1-carbonyl)-3,4-dihydro-1H-pyrrolo[2,1-c][1,4]oxazine-8-carboxylic acid ((R)-1-phenyl-propyl)-amide], the IC50 was 0.025 µM.

Take `CC[C@@H](NC(=O)c1cc(C(=O)N2CCC[C@@H]2C)n2c1COCC2)c1ccc(F)cc1F` [16v, 6-((S)-2-Methyl-pyrrolidine-1-carbonyl)-3,4-dihydro-1H-pyrrolo[2,1-c][1,4]oxazine-8-carboxylic acid [(R)-1-(2,4-difluoro-phenyl)-propyl]-amide]: the IC50 was found to be 0.11 µM.

Regarding `CC[C@@H](NC(=O)c1cc(C(=O)NCc2ncco2)c2n1CCOC2)c1ccccc1` [16jn, 3,4-Dihydro-1H-pyrrolo[2,1-c][1,4]oxazine-6,8-dicarboxylic acid 8-[(oxazol-2-ylmethyl)-amide] 6-[((R)-1-phenyl-propyl)-amide]], the IC50 was 1 µM.

Turning to `CC[C@@H](NC(=O)c1cc(C(=O)NCc2nccs2)c2n1CCOC2)c1ccccc1` [16jt, 3,4-Dihydro-1H-pyrrolo[2,1-c][1,4]oxazine-6,8-dicarboxylic acid 6-[((R)-1-phenyl-propyl)-amide] 8-[(thiazol-2-ylmethyl)-amide]], the IC50 is 0.15 µM.

In the case of `CC[C@@H](NC(=O)c1cc(C(=O)NC(C)c2ncccn2)c2n1CCOC2)c1ccccc1` (mixture of isomers) [16jz, 3,4-Dihydro-1H-pyrrolo[2,1-c][1,4]oxazine-6,8-dicarboxylic acid 6-[((R)-1-phenyl-propyl)-amide] 8-[(1-pyrimidin-2-yl-ethyl)-amide]], the IC50 is 0.3 µM.

Consider `CC[C@H](NC(=O)c1cc(C(=O)N[C@H](C)c2ccc(F)cc2)c2n1CCOC2)c1ccccc1` [16jp, 3,4-Dihydro-1H-pyrrolo[2,1-c][1,4]oxazine-6,8-dicarboxylic acid 8-{[(R)-1-(4-fluoro-phenyl)-ethyl]-amide} 6-[((S)-1-phenyl-propyl)-amide]], for which the IC50 stood at 0.22 µM.

As for `CC[C@@H](NC(=O)c1cc(C(=O)NC(C)COC)n2c1COCC2)c1ccccc1` (stereo partly drawn) [16gg, 3,4-Dihydro-1H-pyrrolo[2,1-c][1,4]oxazine-6,8-dicarboxylic acid 6-[(2-methoxy-1-methyl-ethyl)-amide] 8-[((R)-1-phenyl-propyl)-amide]], the IC50 came to 0.23 µM.

With `CC[C@@H](NC(=O)c1cc(C(=O)N[C@@H](C)c2ccc(F)cc2)n2c1COCC2)c1ncccn1` [16ef, 3,4-Dihydro-1H-pyrrolo[2,1-c][1,4]oxazine-6,8-dicarboxylic acid 6-{[(S)-1-(4-fluoro-phenyl)-ethyl]-amide} 8-[((R)-1-pyrimidin-2-yl-propyl)-amide]], the IC50 is 0.82 µM.

`CC[C@@H](NC(=O)c1cc(C(=O)N2CCC[C@@H]2C)n2c1COCC2)c1ccc(C(F)(F)F)cc1Cl` [16cq, 6-((S)-2-Methyl-pyrrolidine-1-carbonyl)-3,4-dihydro-1H-pyrrolo[2,1-c][1,4]oxazine-8-carboxylic acid [(R)-1-(2-chloro-4-trifluoromethyl-phenyl)-propyl]-amide]: the IC50 amounted to 0.3 µM.

Regarding `CC[C@@H](NC(=O)c1cc(C(=O)NCc2nccs2)c2n1CCCC2)c1ccccc1` [16md, 5,6,7,8-Tetrahydro-indolizine-1,3-dicarboxylic acid 3-[((R)-1-phenyl-propyl)-amide] 1-[(thiazol-2-ylmethyl)-amide]], the IC50 came out at 0.08 µM.

Consider `CCC(NC(=O)c1cc(C(=O)N[C@H](CC)c2ccccc2)c2n1CCOC2)c1ccc(C)nc1` (stereo partly drawn) [16ho, 3,4-Dihydro-1H-pyrrolo[2,1-c][1,4]oxazine-6,8-dicarboxylic acid 6-{[1-(6-methyl-pyridin-3-yl)-propyl]-amide} 8-[((R)-1-phenyl-propyl)-amide]], for which the IC50 is 0.73 µM.

For the compound `CC[C@@H](NC(=O)c1cc(C(=O)NCc2cnccn2)c2n1CCOC2)c1ccc(F)cc1Cl` [16ko, 3,4-Dihydro-1H-pyrrolo[2,1-c][1,4]oxazine-6,8-dicarboxylic acid 6-{[(R)-1-(2-chloro-4-fluoro-phenyl)-propyl]-amide} 8-[(pyrazin-2-ylmethyl)-amide]], the IC50 stood at 0.31 µM.

Take `CC[C@@H](NC(=O)c1cc(C(=O)N2CCC[C@@H]2C)n2c1COCC2)c1ccc(OC)nc1` [16ai, 6-((S)-2-Methyl-pyrrolidine-1-carbonyl)-3,4-dihydro-1H-pyrrolo[2,1-c][1,4]oxazine-8-carboxylic acid [(R)-1-(6-methoxy-pyridin-3-yl)-propyl]-amide]: the IC50 worked out at 1.4 µM.

For `CC[C@@H](NC(=O)c1cc(C(=O)N2CCCC2C(C)C)n2c1COCC2)c1ccccc1` (stereo partly drawn) [16el, 6-(2-Isopropyl-pyrrolidine-1-carbonyl)-3,4-dihydro-1H-pyrrolo[2,1-c][1,4]oxazine-8-carboxylic acid ((R)-1-phenyl-propyl)-amide], the IC50 was found to be 0.38 µM.

As for `CC[C@H](NC(=O)c1cc(C(=O)N[C@H](CC)c2ncccn2)c2n1CCOC2)c1ccccc1` [16kb, 3,4-Dihydro-1H-pyrrolo[2,1-c][1,4]oxazine-6,8-dicarboxylic acid 6-[((S)-1-phenyl-propyl)-amide] 8-[((R)-1-pyrimidin-2-yl-propyl)-amide]], the IC50 is 0.62 µM.

As for `CC[C@@H](NC(=O)c1cc(C(=O)N2CCC[C@@H]2C)n2c1COCC2)c1ccc(C#N)cc1` [16ak, 6-((S)-2-Methyl-pyrrolidine-1-carbonyl)-3,4-dihydro-1H-pyrrolo[2,1-c][1,4]oxazine-8-carboxylic acid [(R)-1-(4-cyano-phenyl)-propyl]-amide], the IC50 came to 1.3 µM.

For `CC[C@@H](NC(=O)c1cc(C(=O)NCc2cc(OC)cc(OC)c2)n2c1COCC2)c1ccccc1` [16gz, 3,4-Dihydro-1H-pyrrolo[2,1-c][1,4]oxazine-6,8-dicarboxylic acid 6-(3,5-dimethoxy-benzylamide) 8-[((R)-1-phenyl-propyl)-amide]], the IC50 came out at 2.2 µM.

The values above are taken from patent US9284333B2, “Fused pyrroledicarboxamides and their use as pharmaceuticals” (SANOFI, priority 2012, dated 2016).
